Source: patent publication US9060981B2, “Marker associated with non-alcoholic steatohepatitis” (MOCHIDA PHARMACEUTICAL CO., LTD., priority 2009, dated 2015)
“Also recorded” adds a separate entry of the source.

Assays:
[1] = system: second factor group genes in the liver; assay: Gene microarray analysis of the liver of mice on high fat/high sugar diet; assay type: in vivo, mouse; conditions: EPA group vs HF-HS group, 20 weeks
Source text: (2) Next, expression of genes in the liver was compared in 3 groups, namely, the control group fed with normal diet, the HF-HS group, and the EPA group. […] (A) HF-HS group/control group ≧2 and EPA group/HF-HS group ≦0.5. (B) HF-HS group/control group ≦0.5 and EPA group/HF-HS group ≧2. Liver was extirpated from the mice of each group, and RNA was extracted by homogenization to conduct gene microarray analysis of the liver. The genes were selected as described below. (1) Genes with group II/group I expression ratio of 2 or higher and group III/group II expression ratio of up to 1/2 were selected. (2) Genes with the group II/group I expression ratio of up to 1/2 and the group III/group II ratio of 2 or more were selected. […] (4) Genes which are (1) but not (3) were selected. (5) Genes which are (2) but not (3) were selected. Next, factors with the possibility of protein secretion into blood were selected from the genes (4), and then, genes satisfying any of relevance with lipid metabolism, relevance with inflammation, increase of expression in the liver of SREBP transgenic mouse were selected from these genes. Genes were selected from the genes (5) by conducting the procedure corresponding to (6).

[2] = system: B6 mice; assay: Fatty liver in B6 mice raised 20 weeks on high fat/high sugar diet; assay type: in vivo, mouse; conditions: high fat/high sugar diet + 5% EPA-E, free feeding, 20 weeks (group III)
Source text: B6 mice (10 week old) were divided into control group (I), HF-HS group (II), and EPA group (III) (n=7 to 10), and the mice were raised for 20 weeks by free feeding of the following diet.

[3] = system: NASH model rats; conditions: telmisartan administered for 10 weeks; cited from earlier work

Row | Compound | group III/group II expression ratio, second factor (A) group genes ([1]; genes with group II/group I ratio of 2 or higher (Table 2)) | group III/group II expression ratio, second factor (B) group genes ([1]; genes with group II/group I ratio of up to 1/2 (Table 3)) | fatty liver [2] | expression of TIMP1 and TIMP2 mRNAs in the liver tissue [3] | liver fibrosis [3]
1 | CC/C=C\C/C=C\C/C=C\C/C=C\C/C=C\CCCC(=O)OCC [EPA-E, ethyl icosapentate] | up to 1/2 | ≥ 2 | fatty liver was not observed; also recorded: fatty liver was not induced |  | 
2 | CCCc1nc2c(C)cc(-c3nc4ccccc4n3C)cc2n1Cc1ccc(-c2ccccc2C(=O)O)cc1 [telmisartan] |  |  |  | decrease | suppression; also recorded: suppressed
